Data as given in US20100003302A1, “VASCULAR RESTENOSIS PREVENTING AGENT AND IMPLANTABLE INTRAVASCULAR DEVICE COATED THEREWITH” (priority 2001, published 2010).

Key:
α2-macroglobulin = biological target: T1, α2-macroglobulin (Homo sapiens, UniProt P01023); test: Deactivation of α2-macroglobulin (trypsin / coloring matrix S2222 assay, absorption at 405 nm); assay type: biochemical
T1 sequence (P01023 24-1474): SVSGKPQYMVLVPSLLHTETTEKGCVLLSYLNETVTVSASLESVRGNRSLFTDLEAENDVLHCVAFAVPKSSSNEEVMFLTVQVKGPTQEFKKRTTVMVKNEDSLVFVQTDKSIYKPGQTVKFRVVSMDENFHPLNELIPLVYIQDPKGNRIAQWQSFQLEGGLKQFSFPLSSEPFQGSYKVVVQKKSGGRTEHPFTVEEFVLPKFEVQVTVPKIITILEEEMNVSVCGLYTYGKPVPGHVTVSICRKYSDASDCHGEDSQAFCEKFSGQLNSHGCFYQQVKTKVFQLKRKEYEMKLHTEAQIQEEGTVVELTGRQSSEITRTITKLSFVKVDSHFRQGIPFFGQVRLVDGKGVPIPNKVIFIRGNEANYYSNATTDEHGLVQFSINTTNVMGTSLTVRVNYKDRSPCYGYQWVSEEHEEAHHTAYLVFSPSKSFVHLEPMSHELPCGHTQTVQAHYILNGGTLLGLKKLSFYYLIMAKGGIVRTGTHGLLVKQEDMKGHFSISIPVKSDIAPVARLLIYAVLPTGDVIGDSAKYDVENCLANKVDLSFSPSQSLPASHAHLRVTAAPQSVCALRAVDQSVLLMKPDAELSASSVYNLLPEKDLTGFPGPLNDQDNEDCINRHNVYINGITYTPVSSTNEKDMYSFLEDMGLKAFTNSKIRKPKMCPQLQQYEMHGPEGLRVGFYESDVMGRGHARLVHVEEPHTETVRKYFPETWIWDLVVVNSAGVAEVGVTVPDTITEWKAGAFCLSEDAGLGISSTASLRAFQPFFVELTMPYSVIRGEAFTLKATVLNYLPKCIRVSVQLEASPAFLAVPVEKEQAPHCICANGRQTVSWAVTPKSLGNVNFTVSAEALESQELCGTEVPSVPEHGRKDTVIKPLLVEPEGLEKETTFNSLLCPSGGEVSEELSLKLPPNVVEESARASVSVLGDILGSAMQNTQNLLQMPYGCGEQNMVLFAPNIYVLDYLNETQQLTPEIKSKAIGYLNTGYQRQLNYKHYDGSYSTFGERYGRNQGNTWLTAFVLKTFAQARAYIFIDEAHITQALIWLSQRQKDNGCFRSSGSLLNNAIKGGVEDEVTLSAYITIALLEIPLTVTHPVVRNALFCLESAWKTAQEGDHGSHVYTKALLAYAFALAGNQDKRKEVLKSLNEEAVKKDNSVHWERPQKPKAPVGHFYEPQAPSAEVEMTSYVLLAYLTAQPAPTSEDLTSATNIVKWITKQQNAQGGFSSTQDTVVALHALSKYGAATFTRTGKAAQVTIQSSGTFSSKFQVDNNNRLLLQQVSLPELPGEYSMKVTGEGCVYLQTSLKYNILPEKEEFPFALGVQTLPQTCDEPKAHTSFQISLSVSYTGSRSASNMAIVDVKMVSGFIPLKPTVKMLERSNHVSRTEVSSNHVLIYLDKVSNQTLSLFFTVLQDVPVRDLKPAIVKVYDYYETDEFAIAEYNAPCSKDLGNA
Procedure: Utilizing the facts that trypsin is inhibited by α2-macroglobulin and that trypsin causes yellow coloring of a coloring matrix S2222 resulting from decomposition thereof, verification was carried out for effects of methylamine, ethylamine, polyethyleneimines with molecular weights of 600 and 10000, tobramycin, ammonia, lysozyme chloride and polylysine on deactivation of α2-macroglobulin. A concrete method will be given below.
Firstly, each of methylamine, ethylamine, polyethyleneimines with molecular weights of 600 and 10000, tobramycin, ammonia, lysozyme chloride and polylysine was diluted to 0.0001 w/v %, 0.001 w/v %, 0.01 w/v %, 0.1 w/v % and 1 w/v % to prepare a series of diluted solutions as sample solutions. 50 μL of each sample solution was added with 50 μL of 2.5×10^−4 w/v % α2-macroglobulin and left for 5 minutes at room temperature. Then, the sample solution was added with 50 μL of a 5 w/v % trypsin EDTA solution, left for 5 minutes at room temperature, and then added with 10 μL of the coloring matrix S2222. After leaving the resultant sample solution for 20 minutes at room temperature, the sample solution was added with 50 μL of 10 w/v % acetic acid solution to stop reactions, and then subjected to measurement of absorption of light with a wave length of 405 nm, using 50 mM tris(hydroxymethyl)aminomethane buffer solution of pH 8.0 as the blank. The dilution of all the samples and agents was carried out by a 50 mM tris(hydroxymethyl)aminomethane buffer solution of pH 8.0. Results are shown in FIG. 5, in which the ordinate denotes the deactivation rate of α2-macroglobulin, and the abscissa denotes the concentrations of respective compounds.

[1] = system: vascular smooth muscles (HNB18E6E7 cell line); test: Migration of vascular smooth muscle cells into fibrin gel containing N-chlorsuccinimide; assay type: cell-based, human; conditions: 37° C., 24 hours
Procedure: The vascular smooth muscles were collected from human vital arteries and established HNB18E6E7 was used as cell lines. The vascular smooth muscles were incubated in 6-well plates to produce confluent cultures. The resultant supernatant fluids were washed three time with warmed phosphate buffer solution (PBS) and softly added with 3 mg/mL of fibrinogen and 0.8 mL of Waymouth culture solution including 10 w/v % human serum. Then, the supernatant fluids were respectively added with N-chlorsuccinimide to adjust the final concentration of N-chlorsuccinimide to 0.08 mM, 0.8 mM, 8 mM and 80 mM, and gelled by addition of thrombin. The resultant gelled supernatants were incubated at 37° C. for 24 hours, and the numbers of the smooth muscle cells migrated into the gel was counted with a phase contrast microscope. For each concentration, the experiments were carried out to make n=3. The ordinate denotes the frequencies of migration of vascular smooth muscles into the gel, while the abscissa denotes the concentration of N-chlorsuccinimide.

[2] = system: right common iliac artery vascular injury model; test: Neointimal formation in vascular injury model (right common iliac artery 3-times balloon injury); assay type: in vivo, rabbits; conditions: local administration by balloon immersed in 80 mM N-chlorsuccinimide vs PBS control; 4 weeks after treatment
Procedure: There were used a group of animals consisted of 5 (five) […] male rabbits aged 2 months. Vascular injury models were prepared by introducing a Fogarty catheter, Model e-060-2F, made by Baxter corporation (that is an arterial embolectomy balloon catheter) into the right common iliac artery through the right femoral artery under pentobarbital anesthesia, and then abrading the right common iliac artery 3 times under conditions of the balloon being inflated (balloon pressure: 0.5-1.0 atm). After injuring the vascular endothelium, hydrophilic balloons made by Boston Scientific Corporation, of an N-chlorsuccinimide-treated group prepared by immersing the balloons in 80 mM N-chlorsuccinimide, and of a control group prepared by immersing the balloons in PBS, were respectively inflated in the right common iliac arteries to locally administer the drug to each injured area. After 4 weeks from the treatment, the arteries were surgically removed, fixed with 10w/v % neutral buffered formalin fixative and then sectioned to prepare arterial ring tissue sections. After preparing elastic fiber stained tissue samples by EVG (Elastic Van Gieson) staining, the samples were subjected to measurements of intimal area (I) and medial area (M) to determine their ratio (I/M) as the degree of intimal thickening. […]

[3] = compound concentration 0.1 w/v %

CN [methylamine]
deactivation rate of α2-macroglobulin (α2-macroglobulin; compound concentration 1 w/v %): about 100%

O=C1CCC(=O)N1Cl [N-chlorsuccinimide]
number of migrating vascular smooth muscles ([1]; 80 mM N-chlorsuccinimide in fibrin gel): vanished completely
frequency of migration of the vascular smooth muscles into the gel ([1]; N-chlorsuccinimide 0.08, 0.8, 8 and 80 mM in fibrin gel, n=3): decreases apparently with increasing concentration
neointimal hyperplasia (degree of intimal thickening, I/M ratio) [2]: considerably inhibited

lysozyme chloride
deactivation rate of α2-macroglobulin (α2-macroglobulin; [3]): 100%

polylysine
deactivation rate of α2-macroglobulin (α2-macroglobulin; [3]): 100%
